Results: patent US9682090B2, “Methods for treating and preventing prostate cancer bone metastases” (University of Washington, priority 2014, dated 2017)

How the values were obtained:
PAP [1] = target: T1, PAP (Homo sapiens, UniProt P15309); conditions: Vovk et al. 2008; cited from earlier work
T1 sequence (P15309 33-386): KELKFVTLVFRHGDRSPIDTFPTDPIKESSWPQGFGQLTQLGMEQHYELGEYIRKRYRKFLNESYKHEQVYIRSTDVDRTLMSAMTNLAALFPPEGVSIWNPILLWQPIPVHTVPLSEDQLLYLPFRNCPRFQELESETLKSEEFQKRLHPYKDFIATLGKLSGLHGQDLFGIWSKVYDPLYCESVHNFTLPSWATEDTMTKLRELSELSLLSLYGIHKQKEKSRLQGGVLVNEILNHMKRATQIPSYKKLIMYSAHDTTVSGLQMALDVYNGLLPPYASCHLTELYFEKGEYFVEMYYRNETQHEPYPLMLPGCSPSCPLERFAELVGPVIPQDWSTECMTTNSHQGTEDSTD

PAP [2] = target: T1, PAP; assay: Inhibition of PAP-induced mineralization in MC3T3-E1 cells (Alizarin Red); type: cell-based; set-up: PAP, lyophilized powder obtained from human prostatic fluid; purchased CELL SCIENCES, Canton, Mass; CSI 14633A; host or cells: natural protein from human prostatic fluid; added to mouse MC3T3-E1 cells; conditions: MC3T3-E1 cells treated with 0.05 units of PAP
Experimental: (§1) Cultured cells, HCO or MC3T3-E1, were seeded at 50,000 cells/well in MEM and 10% FBS. MM was added to all cultures 1-2 days after seeding and replaced every other day. MM, LuCaP 23.1 CM (5%, 10%, or 20%), PAP, lyophilized powder obtained from human prostatic fluid (CSI 14633A; CELL SCIENCES®, Canton, Mass.) or phosphonic acid, P-[phenyl[(phenylmethyl)amino]methyl]- (CAS#25881-35-0; AURORA FINE CHEMICALS™ LLC, San Diego, Calif.) was added to cultures typically on day 5-6, before mineralization occurred. After mineralization, cells were fixed in 10% formalin for 20 minutes and then washed. 2% Alizarin Red was added to air-dried plates. After washing, retained dye was extracted in a solution of 20% methanol and 10% acetic acid in water, and absorbance was measured at 405 nm.
(§2) The benzylaminophosphonic acids are inhibitors of PAP (see Beers S A, et al. (1996) Bioorg Med Chem 4:1693-1701). […] To determine if PA would reduce LuCaP 23.1 CM associated mineralization, MC3T3-E1 cells were treated with 5% to 20% LuCaP 23.1 CM with 5 μM PA.

MC3T3-E1 cells [3] = assay: Inhibition of LuCaP 23.1 CM-induced mineralization in MC3T3-E1 cells (Alizarin Red); type: cell-based, mouse; conditions: 5 μM PA
Experimental: as §1, §2

MC3T3-E1 cells [4] = assay: Alizarin Red mineralization assay in MC3T3-E1 cells; type: cell-based, mouse; conditions: PA 25 μM down to 0.2 μM, MC3T3-E1 cells without PAP

Compound: O=P(O)(O)[C@@H](NCc1ccccc1)c1ccccc1 (single isomer, unassigned) [R enantiomer of P-[phenyl[(phenylmethyl)amino]methyl]-, P-[phenyl[(phenylmethyl)amino]methyl]-]
- PAP inhibition (PAP [1]): potent inhibitor

Compound: O=P(O)(O)C(NCc1ccccc1)c1ccccc1 (stereo not shown) [PA, [phenyl[(phenylmethyl)amino]methyl]-phosphonic acid]
- decrease in mineralization (PAP [2]; 3.15 μM PA): 97.9%
- decrease in mineralization (PAP [2]; 6.25 μM PA): 92.1%
- decrease in mineralization (PAP [2]; 12.5 μM PA): 95.6%
- decrease in mineralization (PAP [2]; 25 μM PA): 97.6%
- lowest PA concentration with significant effect on mineralization (PAP [2]; PA tested 25 μM to 0.2 μM): 0.4 µM
- effect on mineralization (MC3T3-E1 cells [3]; 5% LuCaP 23.1 CM): significantly reduced mineralization
- effect on mineralization (MC3T3-E1 cells [3]; 10% LuCaP 23.1 CM): significantly reduced mineralization
- effect on mineralization (MC3T3-E1 cells [3]; 20% LuCaP 23.1 CM): significantly reduced mineralization
- inhibition of mineralization by PA alone (MC3T3-E1 cells [4]): No significant inhibition
